Measured values as given in patent publication US20230148599A1, “FUNGICIDAL MIXTURES CONTAINING PYRAZOLE DERIVATIVES” (FMC Corporation, priority 2020, published 2023).

These molecules were tested on Blumeria graminis f. sp. tritici (assay: Test C: wheat powdery mildew, preventive spray on wheat seedlings). Details: 50 ppm, 100 = 100% disease control, 0 = no control.
Format: in vivo
Summary of the method: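 Seedlings were sprayed to run-off with compound suspended (ppm) in 50/50 acetone–water containing 250 ppm PEG400, then spore-dust inoculated the following day. After 8 days at 20° C, disease control was rated visually from 0 to 100 against controls.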

| Structure (SMILES) | Test C disease control rating |
| --- | --- |
| Cc1cccc([N+](=O)[O-])c1Nc1c(-c2ccc(Cl)cc2Cl)c(C)nn1C [compound 144] | 35% |
| Cc1cc(Cl)c(Nc2c(-c3ccc(Cl)cc3Cl)c(C)nn2C)c([N+](=O)[O-])c1 [compound 145] | 52% |
| Cc1nn(C)c(Nc2c(Cl)cc(Cl)cc2[N+](=O)[O-])c1-c1ccc(Cl)cc1Cl [compound 146] | 0% |
| COc1cc(F)c(-c2c(C)nn(C)c2Nc2ccccc2[N+](=O)[O-])c(F)c1 [compound 147] | 97% |
| Cc1nn(C)c(Nc2ccccc2[N+](=O)[O-])c1-c1c(F)cc(F)cc1Cl [compound 148] | 98% |
| Cc1nn(C)c(Nc2ccccc2[N+](=O)[O-])c1-c1c(F)cc(F)cc1F [compound 149] | 97% |
| COc1ccc(Nc2c(-c3c(F)cc(C#N)cc3F)c(C)nn2C)c([N+](=O)[O-])c1 [compound 150] | 98% |
| Cc1nn(C)c(Nc2c(F)cccc2[N+](=O)[O-])c1-c1c(F)cc(Cl)cc1F [compound 151] | 99% |
| Cc1nn(C)c(Nc2c(Cl)cccc2[N+](=O)[O-])c1-c1c(F)cc(F)cc1Cl [compound 152] | 98% |
| Cc1cccc([N+](=O)[O-])c1Nc1c(-c2c(F)cc(F)cc2Cl)c(C)nn1C [compound 153] | 99% |
| Cc1nn(C)c(Nc2ccccc2[N+](=O)[O-])c1-c1c(F)cc(F)cc1Br [compound 154] | 98% |
| Cc1nn(C)c(Nc2c(F)cc(Br)cc2[N+](=O)[O-])c1-c1ccc(C#N)cc1Cl [compound 155] | 90% |
| Cc1cc(Cl)c(Nc2c(-c3ccc(C#N)cc3Cl)c(C)nn2C)c([N+](=O)[O-])c1 [compound 156] | 66% |

What follows are molecules tested on Alternaria solani (assay: Test F: tomato early blight, preventive spray on tomato seedlings). Details: 50 ppm, 100 = 100% disease control, 0 = no control.
Format: in vivo
Summary of the method: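 Tomato seedlings were sprayed to run-off with compound suspended in acetone/water (50/50) with 250 ppm PEG400 and inoculated with Alternaria solani spores the next day. Plants were held 48 h at 27 °C in saturated humidity, then 3 days at 20 °C. Disease control was rated visually from 0 to 100 against untreated controls.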

| Structure (SMILES) | Test F disease control rating |
| --- | --- |
| Cc1cccc([N+](=O)[O-])c1Nc1c(-c2ccc(Cl)cc2Cl)c(C)nn1C [compound 144] | 0% |
| Cc1cc(Cl)c(Nc2c(-c3ccc(Cl)cc3Cl)c(C)nn2C)c([N+](=O)[O-])c1 [compound 145] | 24% |
| Cc1nn(C)c(Nc2c(Cl)cc(Cl)cc2[N+](=O)[O-])c1-c1ccc(Cl)cc1Cl [compound 146] | 40% |
| COc1cc(F)c(-c2c(C)nn(C)c2Nc2ccccc2[N+](=O)[O-])c(F)c1 [compound 147] | 99% |
| Cc1nn(C)c(Nc2ccccc2[N+](=O)[O-])c1-c1c(F)cc(F)cc1Cl [compound 148] | 100% |
| Cc1nn(C)c(Nc2ccccc2[N+](=O)[O-])c1-c1c(F)cc(F)cc1F [compound 149] | 96% |
| COc1ccc(Nc2c(-c3c(F)cc(C#N)cc3F)c(C)nn2C)c([N+](=O)[O-])c1 [compound 150] | 99% |
| Cc1nn(C)c(Nc2c(F)cccc2[N+](=O)[O-])c1-c1c(F)cc(Cl)cc1F [compound 151] | 99% |
| Cc1nn(C)c(Nc2c(Cl)cccc2[N+](=O)[O-])c1-c1c(F)cc(F)cc1Cl [compound 152] | 92% |
| Cc1cccc([N+](=O)[O-])c1Nc1c(-c2c(F)cc(F)cc2Cl)c(C)nn1C [compound 153] | 72% |
| Cc1nn(C)c(Nc2ccccc2[N+](=O)[O-])c1-c1c(F)cc(F)cc1Br [compound 154] | 51% |
| Cc1nn(C)c(Nc2c(F)cc(Br)cc2[N+](=O)[O-])c1-c1ccc(C#N)cc1Cl [compound 155] | 93% |
| Cc1cc(Cl)c(Nc2c(-c3ccc(C#N)cc3Cl)c(C)nn2C)c([N+](=O)[O-])c1 [compound 156] | 0% |

Each molecule was assayed on Septoria tritici (assay: Test A: wheat leaf blotch, preventive spray on wheat seedlings). Details: 50 ppm, 100 = 100% disease control, 0 = no control.
Format: in vivo
Summary of the method: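 Wheat seedlings sprayed to run-off with compound suspended in acetone/water with 250 ppm PEG400 surfactant, inoculated next day with Septoria tritici spores. Held 48 h saturated at 24 °C, then 17 days at 20 °C; disease rated 0–100% control relative to controls.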

| Structure (SMILES) | Test A disease control rating |
| --- | --- |
| Cc1cccc([N+](=O)[O-])c1Nc1c(-c2ccc(Cl)cc2Cl)c(C)nn1C [compound 144] | 100% |
| Cc1cc(Cl)c(Nc2c(-c3ccc(Cl)cc3Cl)c(C)nn2C)c([N+](=O)[O-])c1 [compound 145] | 98% |
| Cc1nn(C)c(Nc2c(Cl)cc(Cl)cc2[N+](=O)[O-])c1-c1ccc(Cl)cc1Cl [compound 146] | 97% |
| COc1cc(F)c(-c2c(C)nn(C)c2Nc2ccccc2[N+](=O)[O-])c(F)c1 [compound 147] | 96% |
| Cc1nn(C)c(Nc2ccccc2[N+](=O)[O-])c1-c1c(F)cc(F)cc1Cl [compound 148] | 100% |
| Cc1nn(C)c(Nc2ccccc2[N+](=O)[O-])c1-c1c(F)cc(F)cc1F [compound 149] | 100% |
| COc1ccc(Nc2c(-c3c(F)cc(C#N)cc3F)c(C)nn2C)c([N+](=O)[O-])c1 [compound 150] | 100% |
| Cc1nn(C)c(Nc2c(F)cccc2[N+](=O)[O-])c1-c1c(F)cc(Cl)cc1F [compound 151] | 100% |
| Cc1nn(C)c(Nc2c(Cl)cccc2[N+](=O)[O-])c1-c1c(F)cc(F)cc1Cl [compound 152] | 99% |
| Cc1cccc([N+](=O)[O-])c1Nc1c(-c2c(F)cc(F)cc2Cl)c(C)nn1C [compound 153] | 99% |
| Cc1nn(C)c(Nc2ccccc2[N+](=O)[O-])c1-c1c(F)cc(F)cc1Br [compound 154] | 99% |
| Cc1nn(C)c(Nc2c(F)cc(Br)cc2[N+](=O)[O-])c1-c1ccc(C#N)cc1Cl [compound 155] | 99% |
| Cc1cc(Cl)c(Nc2c(-c3ccc(C#N)cc3Cl)c(C)nn2C)c([N+](=O)[O-])c1 [compound 156] | 91% |

What follows are molecules tested on Phakopsora pachyrhizi (assay: Test D: Asian soybean rust, preventive spray on soybean seedlings). Details: 50 ppm, 100 = 100% disease control, 0 = no control.
Format: in vivo
Summary of the method: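 Compounds in acetone/water (50/50) with 250 ppm PEG400, dosed in ppm, sprayed to run-off on soybean seedlings; inoculated with P. pachyrhizi spores next day. Held 24 h at 22 °C in saturated air, then 8 days at 22 °C; visual rating of disease control, 0–100, relative to untreated controls.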

| Structure (SMILES) | Test D disease control rating |
| --- | --- |
| Cc1cccc([N+](=O)[O-])c1Nc1c(-c2ccc(Cl)cc2Cl)c(C)nn1C [compound 144] | 69% |
| Cc1cc(Cl)c(Nc2c(-c3ccc(Cl)cc3Cl)c(C)nn2C)c([N+](=O)[O-])c1 [compound 145] | 0% |
| Cc1nn(C)c(Nc2c(Cl)cc(Cl)cc2[N+](=O)[O-])c1-c1ccc(Cl)cc1Cl [compound 146] | 0% |
| COc1cc(F)c(-c2c(C)nn(C)c2Nc2ccccc2[N+](=O)[O-])c(F)c1 [compound 147] | 0% |
| Cc1nn(C)c(Nc2ccccc2[N+](=O)[O-])c1-c1c(F)cc(F)cc1Cl [compound 148] | 13% |
| Cc1nn(C)c(Nc2ccccc2[N+](=O)[O-])c1-c1c(F)cc(F)cc1F [compound 149] | 0% |
| COc1ccc(Nc2c(-c3c(F)cc(C#N)cc3F)c(C)nn2C)c([N+](=O)[O-])c1 [compound 150] | 13% |
| Cc1nn(C)c(Nc2c(F)cccc2[N+](=O)[O-])c1-c1c(F)cc(Cl)cc1F [compound 151] | 0% |
| Cc1nn(C)c(Nc2c(Cl)cccc2[N+](=O)[O-])c1-c1c(F)cc(F)cc1Cl [compound 152] | 91% |
| Cc1cccc([N+](=O)[O-])c1Nc1c(-c2c(F)cc(F)cc2Cl)c(C)nn1C [compound 153] | 73% |
| Cc1nn(C)c(Nc2ccccc2[N+](=O)[O-])c1-c1c(F)cc(F)cc1Br [compound 154] | 0% |
| Cc1nn(C)c(Nc2c(F)cc(Br)cc2[N+](=O)[O-])c1-c1ccc(C#N)cc1Cl [compound 155] | 0% |
| Cc1cc(Cl)c(Nc2c(-c3ccc(C#N)cc3Cl)c(C)nn2C)c([N+](=O)[O-])c1 [compound 156] | 0% |

These molecules were tested on Puccinia recondita f. sp. tritici (assay: Test B: wheat leaf rust, preventive spray on wheat seedlings). Details: 50 ppm, 100 = 100% disease control, 0 = no control.
Format: in vivo
Summary of the method: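 Wheat seedlings were sprayed to run-off with compound suspended at ppm concentrations in acetone/water containing 250 ppm PEG400. The next day they were inoculated with Puccinia recondita f. sp. tritici spores, held saturated at 20 °C for 24 h, then kept 7 days at 20 °C. Disease control was rated 0–100% relative to untreated controls.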

| Structure (SMILES) | Test B disease control rating |
| --- | --- |
| Cc1cccc([N+](=O)[O-])c1Nc1c(-c2ccc(Cl)cc2Cl)c(C)nn1C [compound 144] | 68% |
| Cc1cc(Cl)c(Nc2c(-c3ccc(Cl)cc3Cl)c(C)nn2C)c([N+](=O)[O-])c1 [compound 145] | 92% |
| Cc1nn(C)c(Nc2c(Cl)cc(Cl)cc2[N+](=O)[O-])c1-c1ccc(Cl)cc1Cl [compound 146] | 98% |
| COc1cc(F)c(-c2c(C)nn(C)c2Nc2ccccc2[N+](=O)[O-])c(F)c1 [compound 147] | 86% |
| Cc1nn(C)c(Nc2ccccc2[N+](=O)[O-])c1-c1c(F)cc(F)cc1Cl [compound 148] | 99% |
| Cc1nn(C)c(Nc2ccccc2[N+](=O)[O-])c1-c1c(F)cc(F)cc1F [compound 149] | 80% |
| COc1ccc(Nc2c(-c3c(F)cc(C#N)cc3F)c(C)nn2C)c([N+](=O)[O-])c1 [compound 150] | 100% |
| Cc1nn(C)c(Nc2c(F)cccc2[N+](=O)[O-])c1-c1c(F)cc(Cl)cc1F [compound 151] | 100% |
| Cc1nn(C)c(Nc2c(Cl)cccc2[N+](=O)[O-])c1-c1c(F)cc(F)cc1Cl [compound 152] | 100% |
| Cc1cccc([N+](=O)[O-])c1Nc1c(-c2c(F)cc(F)cc2Cl)c(C)nn1C [compound 153] | 100% |
| Cc1nn(C)c(Nc2ccccc2[N+](=O)[O-])c1-c1c(F)cc(F)cc1Br [compound 154] | 80% |
| Cc1nn(C)c(Nc2c(F)cc(Br)cc2[N+](=O)[O-])c1-c1ccc(C#N)cc1Cl [compound 155] | 99% |
| Cc1cc(Cl)c(Nc2c(-c3ccc(C#N)cc3Cl)c(C)nn2C)c([N+](=O)[O-])c1 [compound 156] | 91% |

The molecules below were run on Botrytis cinerea (assay: Test E: tomato Botrytis, preventive spray on tomato seedlings). Details: 50 ppm, 100 = 100% disease control, 0 = no control.
Format: in vivo
Summary of the method: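 Compound suspended in 50/50 acetone/water with 250 ppm PEG400 surfactant and sprayed to run-off on tomato seedlings; Botrytis cinerea spores applied the next day. Incubation 48 h at 20° C in saturated atmosphere, then 3 days at 24° C. Visual rating 0–100% disease control relative to controls.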

| Structure (SMILES) | Test E disease control rating |
| --- | --- |
| Cc1cccc([N+](=O)[O-])c1Nc1c(-c2ccc(Cl)cc2Cl)c(C)nn1C [compound 144] | 0% |
| Cc1cc(Cl)c(Nc2c(-c3ccc(Cl)cc3Cl)c(C)nn2C)c([N+](=O)[O-])c1 [compound 145] | 85% |
| Cc1nn(C)c(Nc2c(Cl)cc(Cl)cc2[N+](=O)[O-])c1-c1ccc(Cl)cc1Cl [compound 146] | 0% |
| COc1cc(F)c(-c2c(C)nn(C)c2Nc2ccccc2[N+](=O)[O-])c(F)c1 [compound 147] | 100% |
| Cc1nn(C)c(Nc2ccccc2[N+](=O)[O-])c1-c1c(F)cc(F)cc1Cl [compound 148] | 99% |
| Cc1nn(C)c(Nc2ccccc2[N+](=O)[O-])c1-c1c(F)cc(F)cc1F [compound 149] | 99% |
| COc1ccc(Nc2c(-c3c(F)cc(C#N)cc3F)c(C)nn2C)c([N+](=O)[O-])c1 [compound 150] | 100% |
| Cc1nn(C)c(Nc2c(F)cccc2[N+](=O)[O-])c1-c1c(F)cc(Cl)cc1F [compound 151] | 99% |
| Cc1nn(C)c(Nc2c(Cl)cccc2[N+](=O)[O-])c1-c1c(F)cc(F)cc1Cl [compound 152] | 99% |
| Cc1cccc([N+](=O)[O-])c1Nc1c(-c2c(F)cc(F)cc2Cl)c(C)nn1C [compound 153] | 99% |
| Cc1nn(C)c(Nc2ccccc2[N+](=O)[O-])c1-c1c(F)cc(F)cc1Br [compound 154] | 99% |
| Cc1nn(C)c(Nc2c(F)cc(Br)cc2[N+](=O)[O-])c1-c1ccc(C#N)cc1Cl [compound 155] | 100% |
| Cc1cc(Cl)c(Nc2c(-c3ccc(C#N)cc3Cl)c(C)nn2C)c([N+](=O)[O-])c1 [compound 156] | 0% |
